Source: patent publication US12565501B2, “Muscarinic acetylcholine M1 receptor antagonists” (Contineum Therapeutics, Inc., priority 2019, dated 2026)
pIC50: −log10 of the molar value.

molecular target: T1, human M1 receptor (Homo sapiens, UniProt P11229); assay: In vitro functional assay of muscarinic acetylcholine receptor activity (aequorin calcium flux, reversal of EC80 acetylcholine response); type: cell-based; conditions: CHO-K1 cells stably expressing human M1 receptor with aequorin; acetylcholine at EC80; calcium flux (luminescence); read-out: M1 IC50
T1 sequence (P11229 1-460): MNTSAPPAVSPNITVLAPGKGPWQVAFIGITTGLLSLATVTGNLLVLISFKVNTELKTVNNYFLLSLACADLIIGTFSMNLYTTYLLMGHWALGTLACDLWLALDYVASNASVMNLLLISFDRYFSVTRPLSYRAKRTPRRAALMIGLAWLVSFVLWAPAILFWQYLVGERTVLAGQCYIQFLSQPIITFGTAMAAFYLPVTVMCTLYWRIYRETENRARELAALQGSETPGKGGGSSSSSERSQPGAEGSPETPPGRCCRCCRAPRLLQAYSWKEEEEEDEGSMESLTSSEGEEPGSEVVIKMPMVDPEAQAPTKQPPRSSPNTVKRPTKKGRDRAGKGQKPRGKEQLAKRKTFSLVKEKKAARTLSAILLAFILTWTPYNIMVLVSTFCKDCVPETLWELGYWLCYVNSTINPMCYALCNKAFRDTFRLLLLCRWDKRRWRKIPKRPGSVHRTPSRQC
Procedure, shortened: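 CHO-K1 cells expressing human M1 and aequorin, loaded with 5 μM coelenterazine for 4 h, preincubated with compound 30 min at room temperature, then challenged with EC80 acetylcholine.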

**Q.** How did the pIC50 turn out when N#Cc1ccc(N2C[C@@H]3CC[C@H]2CN3C(=O)COC2(c3ccc(F)c(F)c3)CC2)nc1 [Example 283, 6-((1S,4S)-5-(2-(1-(3,4-difluorophenyl)cyclopropoxy)acetyl)-2,5-diazabicyclo[2.2.2]octan-2-yl)nicotinonitrile] was run?
**A.** 6.00 to 7.00

**Q.** With N#Cc1ccc(N2C3CCC2CN(C(=O)COC2(c4cc(F)ccc4Br)CC2)C3)nc1 [Example 220, 6-(3-(2-(1-(2-bromo-5-fluorophenyl)cyclopropoxy)acetyl)-3,8-diazabicyclo[3.2.1]-8-yl)nicotinonitrile] as the molecule, how does the pIC50 read?
**A.** > 8.00

**Q.** With CC(OCCC(=O)N1CC2CCC(C1)N2c1ccc(C#N)cn1)c1cccc2ncccc12 (racemic) [Example 311, 6-(3-(3-(1-(quinolin-5-yl)ethoxy)propanoyl)-3,8-diazabicyclo[3.2.1]octan-8-yl)nicotinonitrile] as the molecule, how does the pIC50 read?
**A.** > 8.00

**Q.** With N#Cc1ccc(N2C3CCC2CN(C(=O)COC(c2cccc4ncccc24)C(F)F)C3)nc1 (racemic) [Example 199, 6-(3-(2-(2,2-difluoro-1-(quinolin-5-yl)ethoxy)acetyl)-3,8-diazabicyclo[3.2.1]octan-8-yl)nicotinonitrile] as the molecule, how does the pIC50 read?
**A.** > 8.00

**Q.** How did the pIC50 turn out when N#Cc1ccc(N2C3CCC2CN(C(=O)COC2(c4cncc(F)c4)CCCC2)C3)nc1 [Example 268, 6-(3-(2-((1-(5-fluoropyridin-3-yl)cyclopentyl)oxy)acetyl)-3,8-diazabicyclo[3.2.1]octan-8-yl)nicotinonitrile] was run?
**A.** 7.00 to 8.00

**Q.** With N#Cc1ccc(N2[C@@H]3CC[C@H]2CN(C(=O)CCNC2(c4cccc(F)c4)CC2)C3)nc1 [Example 4, 6-(3-(3-((1-(3-fluorophenyl)cyclopropyl)amino)propanoyl)-3,8-diazabicyclo[3.2.1]octan-8-yl)nicotinonitrile] as the molecule, how does the pIC50 read?
**A.** 7.00 to 8.00

**Q.** N#Cc1ccc(N2C3CCC2CN(C(=O)COC2(c4cccc(OC(F)(F)F)c4)CCC2)C3)nc1 [Example 238, 6-(3-(2-(1-(3-(trifluoromethoxy)phenyl)cyclobutoxy)acetyl)-3,8-diazabicyclo[3.2.1]octan-8-yl)nicotinonitrile] was tested. Which pIC50 did it give?
**A.** 6.00 to 7.00

**Q.** With N#Cc1ccc(N2C3CCC2CN(C(=O)COC2(c4cccc(F)c4)CC2)C3)nc1 [Example 206, 6-(3-(2-(1-(3-fluorophenyl)cyclopropoxy)acetyl)-3,8-diazabicyclo[3.2.1]octan-8-yl)nicotinonitrile] as the molecule, how does the pIC50 read?
**A.** 6.00 to 7.00

**Q.** How did the pIC50 turn out when N#Cc1ccc(N2C3CCC2CN(C(=O)COC(c2ccc(F)c(F)c2)C2CC2)C3)nc1 (racemic) [Example 194, 6-(3-(2-(cyclopropyl(3,4-difluorophenyl)methoxy)acetyl)-3,8-diazabicyclo[3.2.1]octan-8-yl)nicotinonitrile] was run?
**A.** 6.00 to 7.00

**Q.** With N#Cc1ccc(N2C3CCC2CN(C(=O)CCNC2(c4cc(Cl)cc(C#N)c4)CC2)C3)nc1 [Example 289, 6-(3-(3-((1-(3-chloro-5-cyanophenyl)cyclopropyl)amino)propanoyl)-3,8-diazabicyclo[3.2.1]octan-8-yl)nicotinonitrile] as the molecule, how does the pIC50 read?
**A.** 6.00 to 7.00

**Q.** How did the pIC50 turn out when N#Cc1ccc(N2C3CCC2CN(C(=O)COCC(F)(F)c2cccc4ncccc24)C3)nc1 [Example 276, 6-(3-(2-(2,2-difluoro-2-(quinolin-5-yl)ethoxy)acetyl)-3,8-diazabicyclo[3.2.1]octan-8-yl)nicotinonitrile] was run?
**A.** > 8.00

**Q.** With COc1ccncc1C1(OCC(=O)N2CC3CCC(C2)N3c2ccc(C#N)cn2)CCC1 [Example 258, 6-(3-(2-(1-(4-methoxypyridin-3-yl)cyclobutoxy)acetyl)-3,8-diazabicyclo[3.2.1]octan-8-yl)nicotinonitrile] as the molecule, how does the pIC50 read?
**A.** > 8.00

**Q.** With N#Cc1ccc(N2[C@@H]3CC[C@H]2CN(C(=O)CCNC2(c4ccc(F)cc4)CC2)C3)nc1 [Example 5, 6-(3-(3-((1-(4-fluorophenyl)cyclopropyl)amino)propanoyl)-3,8-diazabicyclo[3.2.1]octan-8-yl)nicotinonitrile] as the molecule, how does the pIC50 read?
**A.** 7.00 to 8.00

**Q.** With N#Cc1ccc(N2C3CCC2CN(C(=O)CNC2(c4cccc(OC(F)(F)F)c4)CCC2)C3)nc1 [Example 119, 6-(3-((1-(3-(trifluoromethoxy)phenyl)cyclobutyl)glycyl)-3,8-diazabicyclo[3.2.1]octan-8-yl)nicotinonitrile] as the molecule, how does the pIC50 read?
**A.** 6.00 to 7.00

**Q.** Cc1noc(C)c1C(C)OCC(=O)N1CC2CCC(C1)N2c1ccc(C#N)cn1 (racemic) [Example 197, 6-(3-(2-(1-(3,5-dimethylisoxazol-4-yl)ethoxy)acetyl)-3,8-diazabicyclo[3.2.1]octan-8-yl)nicotinonitrile] was tested. Which pIC50 did it give?
**A.** > 8.00

**Q.** With COc1cccc(C2(NCC(=O)N3CC4CCC(C3)N4c3ccc(C#N)cn3)CC2)c1 [Example 98] as the molecule, how does the pIC50 read?
**A.** > 8.00

**Q.** With COc1ccc(F)c(C2(NCC(=O)N3CC4CCC(C3)N4c3ccc(C#N)cn3)CC2)c1 [Example 111, 6-(3-((1-(2-fluoro-5-methoxyphenyl)cyclopropyl)glycyl)-3,8-diazabicyclo[3.2.1]octan-8-yl)nicotinonitrile] as the molecule, how does the pIC50 read?
**A.** > 8.00

**Q.** CC(c1ccccc1Br)[S+]([O-])CCC(=O)N1CC2CCC(C1)N2c1ccc(C#N)cn1 (racemic) [Example 171, 6-(3-(3-((1-(2-bromophenyl)ethyl)sulflnyl)propanoyl)-3,8-diazabicyclo[3.2.1]octan-8-yl) nicotinonitrile] was tested. Which pIC50 did it give?
**A.** < 6.00

**Q.** How did the pIC50 turn out when N#Cc1ccc(N2C3CCC2CN(C(=O)COC(c2ccc(F)c(F)c2)C(F)F)C3)nc1 (racemic) [Example 201, 6-(3-(2-(1-(3,4-difluorophenyl)-2,2-difluoroethoxy)acetyl)-3,8-diazabicyclo[3.2.1]octan-8-yl)nicotinonitrile] was run?
**A.** 7.00 to 8.00

**Q.** N#Cc1ccc(N2C3CCC2CN(C(=O)COC2(c4c(F)cnc(Br)c4F)CCC2)C3)nc1 [Example 270, 6-(3-(2-(1-(2-bromo-3,5-difluoropyridin-4-yl)cyclobutoxy)acetyl)-3,8-diazabicyclo[3.2.1]octan-8-yl)nicotinonitrile] was tested. Which pIC50 did it give?
**A.** > 8.00

**Q.** How did the pIC50 turn out when CC(OCC(=O)N1CC2CCC(C1)N2c1ccc(C#N)cn1)c1cccn2ncnc12 (racemic) [Example 196, 6-(3-(2-(1-([1,2,4]triazolo[1,5-a]pyridin-8-yl)ethoxy)acetyl)-3,8-diazabicyclo[3.2.1]octan-8-yl)nicotinonitrile] was run?
**A.** > 8.00

**Q.** How did the pIC50 turn out when N#Cc1ccc(N2C3CCC2CN(C(=O)CN2CCC2c2ccc(F)cc2)C3)nc1 (racemic) [Example 104] was run?
**A.** < 6.00

**Q.** N#Cc1ccc(N2C3CCC2CN(C(=O)CNC2(c4ccc(F)cc4F)CCC2)C3)nc1 [Example 115, 6-(3-((1-(2,4-difluorophenyl)cyclobutyl)glycyl)-3,8-diazabicyclo[3.2.1]octan-8-yl)nicotinonitrile] was tested. Which pIC50 did it give?
**A.** 7.00 to 8.00

**Q.** C[C@H](NCCC(=O)N1C[C@H]2CC[C@@H](C1)N2c1ccc(C#N)cn1)c1ccc(F)cc1 [Example 6, 6-(3-(3-(((S)-1-(4-fluorophenyl)ethyl)amino)propanoyl)-3,8-diazabicyclo[3.2.1]octan-8-yl)nicotinonitrile] was tested. Which pIC50 did it give?
**A.** 5.00 to 6.00

**Q.** COc1cc([C@@H](C)NCCC(=O)N2C[C@H]3CC[C@@H](C2)N3c2ccc(C#N)cn2)ccn1 [Example 21, 6-(3-(3-(((R)-1-(2-methoxypyridin-4-yl)ethyl)amino)propanoyl)-3,8-diazabicyclo[3.2.1]octan-8-yl)nicotinonitrile] was tested. Which pIC50 did it give?
**A.** 6.00 to 7.00

**Q.** COc1cncc(C2(OCC(=O)N3CC4CCC(C3)N4c3ccc(C#N)cn3)CC2)c1 [Example 230, 6-(3-(2-(1-(5-methoxypyridin-3-yl)cyclopropoxy)acetyl)-3,8-diazabicyclo[3.2.1]octan-8-yl)nicotinonitrile] was tested. Which pIC50 did it give?
**A.** > 8.00
